Source: the supplement of paper PMC6045584
± gives the standard deviation of the averaged measurements.

Assays:
BI-2536 = compound: CC[C@@H]1C(=O)N(C)c2cnc(Nc3ccc(C(=O)NC4CCN(C)CC4)cc3OC)nc2N1C1CCCC1 [BI-2536]; test: surviving fraction relative to DMSO-only wells; higher = less growth inhibition; conditions: exposure time: 5 days
Summary of the method: (§1)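 Surviving fraction was calculated by normalising CellTiter-Glo luminescence to the median of DMSO-only wells. Tumour cell lines in log phase were seeded in 384-well plates at 250–500 cells per well, and 24 hours later were exposed continuously for five days to inhibitors at 0.5, 1, 5, 10, 50, 100, 500 and 1000 nM.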

CANERTINIB = compound: C=CC(=O)Nc1cc2c(Nc3ccc(F)c(Cl)c3)ncnc2cc1OCCCN1CCOCC1 [CANERTINIB]; test: as above; conditions: exposure time: 5 days
Summary of the method: as §1

Test System	surviving fraction (BI-2536; 0.5 nM)	surviving fraction (BI-2536; 1 nM)	surviving fraction (BI-2536; 5 nM)	surviving fraction (BI-2536; 10 nM)	surviving fraction (BI-2536; 50 nM)	surviving fraction (BI-2536; 100 nM)	surviving fraction (BI-2536; 500 nM)	surviving fraction (BI-2536; 1000 nM)	surviving fraction (CANERTINIB; 0.5 nM)	surviving fraction (CANERTINIB; 1 nM)	surviving fraction (CANERTINIB; 5 nM)	surviving fraction (CANERTINIB; 10 nM)	surviving fraction (CANERTINIB; 50 nM)	surviving fraction (CANERTINIB; 100 nM)	surviving fraction (CANERTINIB; 500 nM)	surviving fraction (CANERTINIB; 1000 nM)
CAL120 BREAST	0.941 ± 0.025	0.431 ± 0.034	0.176 ± 0.0061	0.151 ± 0.013	0.126 ± 0.01	0.113 ± 0.0079	0.0725 ± 0.0027	0.0657 ± 0.0062	0.903 ± 0.055	0.91 ± 0.063	0.91 ± 0.08	0.902 ± 0.036	0.921 ± 0.087	0.928 ± 0.046	0.795 ± 0.092	0.597 ± 0.021
HCT15 LARGE INTESTINE	1.08 ± 0.044	1.04 ± 0.011	1.07 ± 0.026	0.887 ± 0.032	0.334 ± 0.048	0.0687 ± 0.014	0.069 ± 0.004	0.0617 ± 0.0076	0.868 ± 0.082	0.78 ± 0.053	0.775 ± 0.11	0.79 ± 0.064	0.852 ± 0.035	0.869 ± 0.068	0.843 ± 0.079	0.841 ± 0.076
HCC38 BREAST	1.08 ± 0.078	1.15 ± 0.18	0.289 ± 0.021	0.247 ± 0.038	0.219 ± 0.025	0.254 ± 0.017	0.191 ± 0.019	0.115 ± 0.024	1.01 ± 0.11	1.07 ± 0.18	1.08 ± 0.24	1.05 ± 0.082	1.19 ± 0.17	1.18 ± 0.12	0.948 ± 0.1	0.864 ± 0.16
CAL51 BREAST	0.966 ± 0.057	0.87 ± 0.062	0.0793 ± 0.0041	0.0425 ± 0.0026	0.0333 ± 0.0013	0.0258 ± 0.0033	0.0175 ± 0.00087	0.0207 ± 0.00076	0.937 ± 0.078	0.92 ± 0.061	0.983 ± 0.053	0.976 ± 0.018	0.974 ± 0.038	1.05 ± 0.083	0.87 ± 0.014	0.481 ± 0.015
COLO320DM LARGE INTESTINE	1.17 ± 0.018	1.08 ± 0.015	1.09 ± 0.051	0.836 ± 0.034	0.191 ± 0.019	0.0987 ± 0.0025	0.105 ± 0.011	0.109 ± 0.0025	1.14 ± 0.076	1.15 ± 0.042	1.04 ± 0.062	1.05 ± 0.06	1.11 ± 0.084	1.04 ± 0.047	0.893 ± 0.032	0.66 ± 0.018
SKBR3 BREAST	0.914 ± 0.12	0.363 ± 0.043	0.158 ± 0.026	0.189 ± 0.02	0.255 ± 0.063	0.356 ± 0.045	0.321 ± 0.018	0.301 ± 0.025	0.831 ± 0.019	0.79 ± 0.017	0.68 ± 0.051	0.6073 ± 0.0035	0.48 ± 0.025	0.4 ± 0.024	0.224 ± 0.0067	0.176 ± 0.0098
HMLE3 BREAST	1.04 ± 0.14	1.09 ± 0.1	0.819 ± 0.076	0.216 ± 0.0056	0.0467 ± 0.014	0.0453 ± 0.015	0.0567 ± 0.011	0.063 ± 0.007	0.883 ± 0.0092	0.909 ± 0.082	0.891 ± 0.044	0.898 ± 0.018	0.913 ± 0.024	0.838 ± 0.14	0.847 ± 0.028	0.872 ± 0.1
HMT3552 BREAST	0.781	0.352	0.14	0.192	0.221	0.205	0.121	0.11	0.832 ± 0.042	0.838 ± 0.058	0.804 ± 0.014	0.774 ± 0.029	0.828 ± 0.079	0.8597 ± 0.0078	0.696 ± 0.037	0.604 ± 0.015
SNU475 LIVER	1.03 ± 0.05	1.01 ± 0.065	0.587 ± 0.06	0.255 ± 0.026	0.2 ± 0.033	0.16 ± 0.0044	0.169 ± 0.0055	0.174 ± 0.018	0.917 ± 0.0099	0.8847 ± 0.0057	0.88 ± 0.051	0.85 ± 0.041	0.9373 ± 0.0055	0.908 ± 0.024	0.869 ± 0.022	0.808 ± 0.058
OS25HAL BONE	1.003 ± 0.006	0.933 ± 0.064	0.0997 ± 0.016	0.0533 ± 0.0029	0.0483 ± 0.0015	0.0337 ± 0.004	0.0317 ± 0.0023	0.037 ± 0.002	0.898 ± 0.0053	0.879 ± 0.013	0.886 ± 0.003	0.893 ± 0.042	1.014 ± 0.0056	1.03 ± 0.019	1.01 ± 0.072	0.981 ± 0.092
SG43 HEADNECK	0.902 ± 0.22	1.04 ± 0.23	0.734 ± 0.16	0.715 ± 0.099	0.454 ± 0.079	0.323 ± 0.12	0.17 ± 0.051	0.0543 ± 0.014	1.05 ± 0.074	1.06 ± 0.1	0.772 ± 0.21	0.816 ± 0.14	0.387 ± 0.23	0.223 ± 0.027	0.265 ± 0.05	0.183 ± 0.0075
PCI30 HEADNECK	0.988 ± 0.027	0.689 ± 0.054	0.128 ± 0.015	0.149 ± 0.01	0.286 ± 0.029	0.337 ± 0.02	0.357 ± 0.0049	0.255 ± 0.011	0.962 ± 0.047	0.879 ± 0.058	0.866 ± 0.042	0.641 ± 0.032	0.485 ± 0.03	0.47 ± 0.017	0.323 ± 0.034	0.228 ± 0.028
SYO1 SYNOVIAL	1.02 ± 0.015	0.884 ± 0.045	0.108 ± 0.036	0.0738 ± 0.015	0.0606 ± 0.0062	0.0441 ± 0.0071	0.0205 ± 0.0005	0.0188 ± 0.0014	0.836 ± 0.061	0.791 ± 0.045	0.793 ± 0.027	0.784 ± 0.029	0.86 ± 0.029	0.871 ± 0.038	0.666 ± 0.019	0.498 ± 0.022
CHLA90 AUTONOMIC GANGLIA	1.07 ± 0.045	0.978 ± 0.062	0.408 ± 0.032	0.203 ± 0.01	0.167 ± 0.027	0.135 ± 0.015	0.132 ± 0.0078	0.0863 ± 0.0025	0.869 ± 0.021	0.876 ± 0.083	0.744 ± 0.072	0.704 ± 0.03	0.812 ± 0.08	0.761 ± 0.057	0.684 ± 0.045	0.643 ± 0.062
MFM223 BREAST	0.818 ± 0.041	0.338 ± 0.017	0.0768 ± 0.0068	0.0932 ± 0.0063	0.137 ± 0.012	0.148 ± 0.012	0.141 ± 0.011	0.106 ± 0.016	0.817 ± 0.075	0.898 ± 0.12	0.84 ± 0.14	0.808 ± 0.01	0.958 ± 0.077	1 ± 0.034	0.874 ± 0.013	0.794 ± 0.029
